# Results from patent publication US11180452B2, “Methods and compositions for selectively inhibiting pathogenic microbes” (priority 2019, dated 2021).
# Values joined by “and” are separate entries in the source; they are usually repeats but may differ in a detail not shown here. Equal values may be shown once. Read-outs that look alike come from different tables or passages of the source.
# Key:
# NoSpin HepaRG cells = experiment: HepaRG cytotoxicity, MTT assay EC50; type: cell-based, human; details: Homo sapiens, HepaRG; cytotoxicity EC50, Table 9
# Method: Additionally, the antimicrobial compounds were analyzed for cytotoxicity. […] We utilized the standard MTT assay (Promega CellTiter 96) and GraphPad Prism 7 software to determine EC50 values for each analogue. Briefly, 20,000 HepG2 cells in 200 μl of the ATCC recommended media were seeded in each well of a 96-well plate with a moisture barrier created in the outermost wells. The cells were allowed to attach overnight at 37° C., and then observed under phase contrast microscopy for proper morphological characteristics. […] Once incubations were complete, the spectrophotometric absorbance of the samples was measured at a wavelength of 595 nm. […] For the HepaRG assay, NoSpin HepaRG™ cells (Lonza, cat #NSHPRG) were thawed and plated with 20,000 cells per well. They were allowed to attach for 4 h (optimal DME profile per Lonza's testing) before dosing following the identical protocol as above.
# Bacillus subtilis = Bacillus subtilis MIC / MBC; type: cell-based; details: for MBC: Bacillus subtilis NRRL: B-571, minimum bactericidal concentration; for MIC: Bacillus subtilis, Bacillus subtilis (Ehrenberg 1835) Cohn 1872 NRRL: B-571, read-out: MIC
# Bacillus thuringiensis = type: cell-based; details: Bacillus thuringiensis Berliner ATCC: 10792; for MIC: Bacillus thuringiensis, read-out: MIC
# Candida glabrata = Candida glabrata MIC / MFC; type: cell-based; details: Nakaseomyces glabratus; for MIC: read-out: MIC; for MFC: read-out: MFC
# [1] = system: Francisella tularensis subsp. Holarctica Strain LVSR NR-597; experiment: microbe, parasite or virus in culture; type: cell-based
# N. gonorrhoeae = N. gonorrhoeae MIC; type: cell-based; details: Neisseria gonorrhoeae
# [2] = system: Francisella tularensis strains; experiment: microbe, parasite or virus in culture; type: cell-based
# [3] = Toxicity in mice, body weight over 7 days; type: in vivo, Balb/c mice; details: for Animal body weight (kg) Day 0 / Animal body weight (kg) Day 1 / Animal body weight (kg) Day 2 / Animal body weight (kg) Day 3 / Animal body weight (kg) Day 4 / Animal body weight (kg) Day 5 / Animal body weight (kg) Day 6 / Animal body weight (kg) Day 7: mice, IP; for Animal body weight (kg) Day 0: Day 0, individual animals; for Animal body weight (kg) Day 1: Day 1, individual animals; for Animal body weight (kg) Day 2: Day 2, individual animals; for Animal body weight (kg) Day 3: Day 3, individual animals; for Animal body weight (kg) Day 4: Day 4, individual animals; for Animal body weight (kg) Day 5: Day 5, individual animals; for Animal body weight (kg) Day 6: Day 6, individual animals; for Animal body weight (kg) Day 7: Day 7, individual animals
# Description: The vehicle is 40% PEG300 solution in 0.9% NaCl. […] Thus, the compounds are useful for in vivo antimicrobial administration.
# Trichophyton rubrum = experiment: MIC against Trichophyton rubrum; type: cell-based; details: Trichophyton rubrum Castellani Sabouraud ATCC: 28188; read-out: MIC
# [4] = system: Burkholderia thailandensis Brett et al ATCC: 700388; experiment: microbe, parasite or virus in culture; type: cell-based
# C. albicans = experiment: Candida albicans MIC / MFC; type: cell-based
# [5] = Candida glabrata #584 (Table 2)
# [6] = read-out: F. tularensis BSL-3 MIC, Strain 100
# [7] = read-out: F. tularensis BSL-3 MIC, strain HN-63
# [8] = read-out: F. tularensis BSL-3 MIC, strain LVS
# [9] = read-out: F. tularensis BSL-3 MIC, strain MA00-2987
# [10] = read-out: F. tularensis BSL-3 MIC, strain MO #1
# [11] = read-out: F. tularensis BSL-3 MIC, strain MO #2
# [12] = read-out: F. tularensis BSL-3 MIC, strain MO #3
# [13] = read-out: F. tularensis BSL-3 MIC, strain OR-96
# [14] = read-out: F. tularensis BSL-3 MIC, strain SCHU S4
# [15] = read-out: F. tularensis BSL-3 MIC, strain WY-96
# [16] = read-out: MAX, highest MIC over the Francisella tularensis strains
# [17] = read-out: MIN, lowest MIC over the Francisella tularensis strains
# [18] = C. albicans strain #761, read-out: MIC
# [19] = C. albicans strain #762, read-out: MFC
smiles,measurement,setting,value
"Cc1[nH]c2ccc(Br)cc2c1Sc1ccccc1Br [Compound 174AZ, 5-bromo-3-((2-bromophenyl)thio)-2-methyl-1H-indole]",EC50,NoSpin HepaRG cells,25.8 µg/mL
same,MBC,Bacillus subtilis,4 µg/mL
same,MIC,Bacillus subtilis,1 µg/mL
same,MBC,Bacillus thuringiensis,8 µg/mL
same,MIC,Bacillus thuringiensis,1 µg/mL
same,MIC,Candida glabrata; [5],> 50 µg/mL
same,MIC,[1],1 µg/mL
same,MIC,N. gonorrhoeae; strain #167,3.12 µg/mL
same,MIC50,[2],2 µg/mL
same,MIC,[2]; [6],4 µg/mL
same,MIC,[2]; [7],2 µg/mL
same,MIC,[2]; [8],2.67 µg/mL
same,MIC,[2]; [9],2 µg/mL
same,MIC,[2]; [10],1.33 µg/mL
same,MIC,[2]; [11],1 µg/mL
same,MIC,[2]; [12],2 µg/mL
same,MIC,[2]; [13],2 µg/mL
same,MIC,[2]; [14],4 µg/mL
same,MIC,[2]; [15],2 µg/mL
same,MIC,[2]; [16],4 µg/mL
same,MIC,[2]; [17],1 µg/mL
same,toxicity in mice by body weight,"[3]; 6-week-old Balb/c mice, body weight over 7 days, vehicle 40% PEG300 in 0.9% NaCl",did not have significant toxicity
same,Animal body weight (kg) Day 0,"[3]; 0.1 mg/kg, 0.1 mg/kg",0.023 kg (2×) and 0.025 kg
same,Animal body weight (kg) Day 1,"[3]; 0.1 mg/kg, 0.1 mg/kg",0.022 kg and 0.024 kg and 0.023 kg
same,Animal body weight (kg) Day 2,"[3]; 0.1 mg/kg, 0.1 mg/kg",0.022 kg and 0.025 kg and 0.023 kg
same,Animal body weight (kg) Day 3,"[3]; 0.1 mg/kg, 0.1 mg/kg",0.022 kg and 0.025 kg and 0.023 kg
same,Animal body weight (kg) Day 4,"[3]; 0.1 mg/kg, 0.1 mg/kg",0.023 kg (2×) and 0.025 kg
same,Animal body weight (kg) Day 5,"[3]; 0.1 mg/kg, 0.1 mg/kg",0.022 kg and 0.025 kg and 0.023 kg
same,Animal body weight (kg) Day 6,"[3]; 0.1 mg/kg, 0.1 mg/kg",0.022 kg and 0.025 kg and 0.023 kg
same,Animal body weight (kg) Day 7,"[3]; 0.1 mg/kg, 0.1 mg/kg",0.022 kg (2×) and 0.025 kg
same,Animal body weight (kg) Day 0,"[3]; 1 mg/kg, 1 mg/kg",0.024 kg (2×) and 0.025 kg
same,Animal body weight (kg) Day 1,"[3]; 1 mg/kg, 1 mg/kg",0.023 kg and 0.024 kg (2×)
same,Animal body weight (kg) Day 2,[3]; 1 mg/kg,0.024 kg
same,Animal body weight (kg) Day 3,"[3]; 1 mg/kg, 1 mg/kg",0.025 kg and 0.024 kg (2×)
same,Animal body weight (kg) Day 4,"[3]; 1 mg/kg, 1 mg/kg",0.025 kg (2×) and 0.024 kg
same,Animal body weight (kg) Day 5,"[3]; 1 mg/kg, 1 mg/kg",0.025 kg and 0.023 kg and 0.024 kg
same,Animal body weight (kg) Day 6,"[3]; 1 mg/kg, 1 mg/kg",0.025 kg and 0.024 kg (2×)
same,Animal body weight (kg) Day 7,"[3]; 1 mg/kg, 1 mg/kg",0.025 kg and 0.023 kg and 0.024 kg
same,Animal body weight (kg) Day 0,"[3]; 10 mg/kg, 10 mg/kg",0.023 kg (2×) and 0.024 kg
same,Animal body weight (kg) Day 1,"[3]; 10 mg/kg, 10 mg/kg",0.022 kg (2×) and 0.023 kg
same,Animal body weight (kg) Day 2,"[3]; 10 mg/kg, 10 mg/kg",0.022 kg and 0.023 kg (2×)
same,Animal body weight (kg) Day 3,"[3]; 10 mg/kg, 10 mg/kg",0.022 kg (2×) and 0.023 kg
same,Animal body weight (kg) Day 4,[3]; 10 mg/kg,0.023 kg
same,Animal body weight (kg) Day 5,[3]; 10 mg/kg,0.023 kg
same,Animal body weight (kg) Day 6,"[3]; 10 mg/kg, 10 mg/kg",0.022 kg (2×) and 0.023 kg
same,Animal body weight (kg) Day 7,"[3]; 10 mg/kg, 10 mg/kg",0.023 kg (2×) and 0.022 kg
"Brc1ccc(Sc2c[nH]c3cccc(Br)c23)cc1 [Compound 174D, 4-bromo-3-((4-bromophenyl)thio)-1H-indole]",MIC,Trichophyton rubrum,2.38 µg/mL
same,EC50,NoSpin HepaRG cells,23.2 µg/mL
same,MIC,Bacillus subtilis,1.56 µg/mL
same,MBC,Bacillus thuringiensis,3.13 µg/mL
same,MIC,Bacillus thuringiensis,1.56 µg/mL
same,MIC,[4],> 50 µg/mL
same,MIC,Candida glabrata; C. glabrata strain #325,> 50 µg/mL
same,MIC,[1],1.56 µg/mL
same,MIC,C. albicans; [18],> 50 µg/mL
same,MFC,C. albicans; [19],12.5 µg/mL
"Oc1ccccc1Sc1c[nH]c2ccc(C(F)(F)F)cc12 [Compound 177A, 2-((5-(trifluoromethyl)-1H-indol-3-yl)thio)phenol]",EC50,NoSpin HepaRG cells,24.1 µg/mL
same,MIC,Bacillus subtilis,0.39 µg/mL
same,MBC,[4],> 50 µg/mL
same,MIC,[4],> 50 µg/mL
same,MIC,Candida glabrata; [5],> 50 µg/mL
same,MIC,[1],0.78 µg/mL
same,MIC,N. gonorrhoeae; strain #203,3.13 µg/mL
same,MIC,N. gonorrhoeae; strain #205,3.13 µg/mL
"Nc1cc(Br)ccc1Sc1c[nH]c2ccc(Br)cc12 [Compound 174X, 5-bromo-2-((5-bromo-1H-indol-3-yl)thio)aniline]",MIC,Trichophyton rubrum,0.62 µg/mL
same,EC50,NoSpin HepaRG cells,30.2 µg/mL
same,MBC,Bacillus subtilis,> 10 µg/mL
same,MIC,Bacillus subtilis,1.56 µg/mL
same,MBC,Bacillus thuringiensis,2.5 µg/mL
same,MIC,Bacillus thuringiensis,2.5 µg/mL
same,MIC,[4],> 50 µg/mL
same,MFC,Candida glabrata; C. glabrata strain #325,> 50 µg/mL
same,MIC,Candida glabrata; C. glabrata strain #325,12.5 µg/mL
same,MFC,"Candida glabrata; Candida glabrata #584 (Table 2), minimum fungicidal concentration",6.25 µg/mL
same,MFC,"C. albicans; C. albicans strain #761, read-out: MFC",> 50 µg/mL
same,MIC,C. albicans; [18],12.5 µg/mL
same,MFC,C. albicans; [19],> 50 µg/mL
same,MIC,"C. albicans; C. albicans strain #762, read-out: MIC",12.5 µg/mL
same,MIC50,[2],4 µg/mL
same,MIC,[2]; [6],8 µg/mL
same,MIC,[2]; [7],4 µg/mL
same,MIC,[2]; [8],> 8 µg/mL
same,MIC,[2]; [9],4 µg/mL
same,MIC,[2]; [10],2.67 µg/mL
same,MIC,[2]; [11],2 µg/mL
same,MIC,[2]; [12],4 µg/mL
same,MIC,[2]; [13],4 µg/mL
same,MIC,[2]; [14],4 µg/mL
same,MIC,[2]; [15],3 µg/mL
same,MIC,[2]; [16],> 8 µg/mL
same,MIC,[2]; [17],2 µg/mL
